The record followed here is US20240166622A1, “FLUORINATED QUINOLINE, QUINOXALINE AND BENZO[B][1,4]OXAZINE DERIVATIVES AS DIHYDROOROTATE DEHYDROGENASE (DHODH) INHIBITORS FOR THE TREATMENT OF CANCER, AUTOIMMUNE AND INFLAMMATORY DISEASES” (Janssen Biotech, Inc., priority 2019, published 2024).

Where only a bound is given, the exact number is not on record here.

Assay [1] deals with MOLM-13 cells. Briefly: MOLM-13 Cellular Assay. Particulars: Homo sapiens, 72 hours, cell viability by CellTiter-Glo. Type of assay: cell-based. How it is done: MOLM-13 cells were obtained from DSMZ and were maintained in RPMI 1640+Glutamax+25 mM HEPES (Invitrogen, catalog number 72400) supplemented with 10% heat inactivated fetal bovine serum (FBS; Invitrogen, catalog number 16140). The day prior to assay set-up, cells were pelleted, resuspended in fresh media, counted, and cells were plated at 0.4×10^6 cell/mL in a T150 flask. On the day of the assay, cells were pelleted, resuspend in fresh media, counted, and seeded at 5,000 cells/well in white opaque 96-well tissue culture treated microplates (Perkin Elmer, catalog number 6005680). Cells were exposed to different concentrations of test compounds at 37° C., 5% CO2 for 72 hours immediately after seeding. Cell viability was acquired on a Perkin Elmer Envision 2104 multilabel reader using the CellTiter-Glo assay (Promega) according to the manufacturer's instructions.

Assay [2] concerns the target human DHODH (Homo sapiens (Human), UniProt Q02127). Briefly: DHODH Enzymatic Assay. Type of assay: biochemical. Particulars: purified human DHODH, DCIP absorbance, end-point mode. How it is done: To detect DHODH enzyme activities, dichloroindophenol (DCIP) is added as the final electron acceptor in the assay. DCIP can accept electrons from the reduced coenzyme Q generated in the assay, or from dihydroorotate (DHO) via FMN by binding presumably to the ubiquinone pocket. […] The assay buffer contained […], pH 7.5, 150 mM NaCl, 0.5 mM EDTA, and 0.1% Triton X-100 in MilliQ water. Substrate consisting of 20 mM DHO, 5 mM CoQ6, and 1 mM DCIP in assay buffer, initiates the reaction. […] Absorbance measurements were obtained using the BMG Phera Star plate-reading spectrophotomer. Purified human DHODH was purchased from Proteros (cat. No. PR-0044). Chemicals were purchased from Sigma-Aldrich, Teknova, and Avanti Polar Lipids. Liquid handling was performed using Labcyte Echo and Formulatrix Tempest.

Chain of human DHODH (Q02127 whole entry): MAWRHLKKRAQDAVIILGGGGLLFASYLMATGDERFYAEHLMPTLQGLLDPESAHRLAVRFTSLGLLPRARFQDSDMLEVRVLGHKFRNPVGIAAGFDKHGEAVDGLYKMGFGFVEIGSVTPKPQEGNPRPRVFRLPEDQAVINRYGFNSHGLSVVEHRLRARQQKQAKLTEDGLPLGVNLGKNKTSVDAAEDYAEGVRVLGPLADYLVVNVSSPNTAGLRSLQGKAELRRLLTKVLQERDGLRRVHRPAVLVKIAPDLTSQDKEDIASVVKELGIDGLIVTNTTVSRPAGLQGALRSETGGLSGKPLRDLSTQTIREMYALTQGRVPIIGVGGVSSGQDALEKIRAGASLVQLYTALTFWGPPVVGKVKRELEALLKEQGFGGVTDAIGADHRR

By IC50 is commonly meant the midpoint of a concentration-inhibition curve. Read a low IC50 as higher potency. Consider `CCn1c(CO)nn(-c2cc3c(cc2F)C(=O)C(c2ccccc2C)CN3C(C)C)c1=O` (stereo not shown) [Example 11, 7-(4-Ethyl-3-(hydroxymethyl)-5-oxo-4,5-dihydro-1H-1,2,4-triazol-1-yl)-6-fluoro-1-isopropyl-3-(o-tolyl)-2,3-dihydroquinolin-4(1H)-one], for which the IC50 in assay [1] turned out to be 0.5 nM.
Same read-out and setting: in the case of `CCn1c(CO)nn(-c2cc3c(cc2F)[C@@H](O)[C@H](c2ccccc2C)CN3C(C)C)c1=O` (stereo in doubt) [Example 18, 4-Ethyl-2-((3R*,4S*)-6-fluoro-4-hydroxy-1-isopropyl-3-(o-tolyl)-1,2,3,4-tetrahydroquinolin-7-yl)-5-(hydroxymethyl)-2,4-dihydro-3H-1,2,4-triazol-3-one] it was 3 nM.
Regarding `CCn1c(CO)nn(-c2cc3c(cc2F)NC(c2ccccc2C)CC3C(C)C)c1=O` (racemic) [Example 13, Racemic 4-Ethyl-2-(7-fluoro-4-isopropyl-2-(o-tolyl)-1,2,3,4-tetrahydroquinolin-6-yl)-5-(hydroxymethyl)-2,4-dihydro-3H-1,2,4-triazol-3-one], the results for the IC50 in assay [2] and in assay [1] were 51.7 nM and 20 nM, respectively.
The like results for `CCn1c(CO)nn(-c2cc3c(cc2F)C(O)C(c2ccccc2C)CN3C(C)C)c1=O` (racemic) [Example 14, Racemic 4-Ethyl-2-(6-fluoro-4-hydroxy-1-isopropyl-3-(o-tolyl)-1,2,3,4-tetrahydroquinolin-7-yl)-5-(hydroxymethyl)-2,4-dihydro-3H-1,2,4-triazol-3-one] were, in that order, 5.62 nM and 4 nM.
Regarding `CCn1c(CO)nn(-c2cc3c(cc2F)O[C@H](c2c(F)cccc2Cl)CN3C(C)C)c1=O` (single isomer, unassigned) [Example 8, (R*)-1-(2-(2-Chloro-6-fluorophenyl)-7-fluoro-4-isopropyl-3,4-dihydro-2H-benzo[b][1,4]oxazin-6-yl)-4-ethyl-3-(hydroxymethyl)-1H-1,2,4-triazol-5(4H)-one], the values for the IC50 in assay [2] and in assay [1] were 5.5 nM and 3 nM, respectively.
The like results for `CCn1c(CO)nn(-c2ccc3c(c2)N([C@@H](C)C(F)(F)F)CC(c2c(F)cccc2Cl)N3)c1=O` (stereo partly drawn) [Example 4, 2-(2-(2-Chloro-6-fluorophenyl)-4-((S)-1,1,1-trifluoropropan-2-yl)-1,2,3,4-tetrahydroquinoxalin-6-yl)-4-ethyl-5-(hydroxymethyl)-2,4-dihydro-3H-1,2,4-triazol-3-one] were, in that order, 2.42 nM and 3 nM.
On to `CCn1c(CO)nn(-c2cc3c(cc2F)[C@H](O)[C@@H](c2ccccc2C)CN3C(C)C)c1=O` (stereo in doubt) [Example 17, 4-Ethyl-2-((3S*,4R*)-6-fluoro-4-hydroxy-1-isopropyl-3-(o-tolyl)-1,2,3,4-tetrahydroquinolin-7-yl)-5-(hydroxymethyl)-2,4-dihydro-3H-1,2,4-triazol-3-one], for which the IC50 is 173 nM in assay [2] and roughly 100 nM in assay [1].
As for `CCn1c(CO)nn(-c2cc3c(cc2F)O[C@@H](c2c(F)cccc2Cl)CN3C(C)C)c1=O` (single isomer, unassigned) [Example 7, (S*)-1-(2-(2-Chloro-6-fluorophenyl)-7-fluoro-4-isopropyl-3,4-dihydro-2H-benzo[b][1,4]oxazin-6-yl)-4-ethyl-3-(hydroxymethyl)-1H-1,2,4-triazol-5(4H)-one], the 50% inhibitory concentration (IC50) in assay [2] stood at 0.256 nM; in assay [1] it was 0.1 nM.
In the case of `CCn1c(CO)nn(-c2cc3c(cc2F)c(=O)c(-c2ccccc2C)cn3C(C)C)c1=O` [Example 10, 7-(4-Ethyl-3-(hydroxymethyl)-5-oxo-4,5-dihydro-TH-1,2,4-triazol-1-yl)-6-fluoro-1-isopropyl-3-(o-tolyl)quinolin-4(1H)-one], the IC50 in assay [1] was 9 nM.
`CCn1c(CO)nn(-c2cc3c(cc2F)N[C@@H](c2ccccc2C)C[C@H]3C(C)C)c1=O` (stereo in doubt) [Example 22, 4-Ethyl-2-((2R*,4S*)-7-fluoro-4-isopropyl-2-(0-tolyl)-1,2,3,4-tetrahydroquinolin-6-yl)-5-(hydroxymethyl)-2,4-dihydro-3H-1,2,4-triazol-3-one]: the half-inhibitory concentration (IC50) amounted to 113 nM in assay [2] and 30 nM in assay [1].
The like results for `CCn1c(CO)nn(-c2cc3c(cc2F)c(=O)c(-c2cccc(F)c2)cn3C(C)C)c1=O` [Example 1, 7-(4-Ethyl-3-(hydroxymethyl)-5-oxo-4,5-dihydro-1H-1,2,4-triazol-1-yl)-6-fluoro-3-(3-fluorophenyl)-1-isopropylquinolin-4(1H)-one] were, in that order, 528 nM and 400 nM.
For `CCn1c(CO)nn(-c2cc3c(cc2F)[C@H](O)[C@H](c2ccccc2C)CN3C(C)C)c1=O` (stereo in doubt) [Example 16, 4-Ethyl-2-((3R*,4R*)-6-fluoro-4-hydroxy-1-isopropyl-3-(o-tolyl)-1,2,3,4-tetrahydroquinolin-7-yl)-5-(hydroxymethyl)-2,4-dihydro-3H-1,2,4-triazol-3-one] the same measures were 2.24 nM and 2 nM.
For `CCn1c(CO)nn(-c2cc3c(cc2F)N[C@H](c2ccccc2C)C[C@@H]3C(C)C)c1=O` (stereo in doubt) [Example 23, 4-Ethyl-2-((2R*,4S*)-7-fluoro-4-isopropyl-2-(o-tolyl)-1,2,3,4-tetrahydroquinolin-6-yl)-5-(hydroxymethyl)-2,4-dihydro-3H-1,2,4-triazol-3-one] the same measures were 49.2 nM and 10 nM.
`CCn1c(CO)nn(-c2cc3c(cc2F)c(=O)c(-c2cc(C)ccc2F)cn3C(C)C)c1=O` [Example 9, 7-(4-Ethyl-3-(hydroxymethyl)-5-oxo-4,5-dihydro-1H-1,2,4-triazol-1-yl)-6-fluoro-3-(2-fluoro-5-methylphenyl)-1-isopropylquinolin-4(1H)-one]: the half-inhibitory concentration (IC50) in assay [2] was 58.2 nM; in assay [1], greater than 100 nM.
For the molecule `CCn1c(CO)nn(-c2cc3c(cc2F)c(=O)c(-c2c(F)cccc2Cl)cn3C(C)C)c1=O` [Example 12, 3-(2-Chloro-6-fluorophenyl)-7-(4-ethyl-3-(hydroxymethyl)-5-oxo-4,5-dihydro-1H-1,2,4-triazol-1-yl)-6-fluoro-1-isopropylquinolin-4(1H)-one], the IC50 in assay [1] is 30 nM.
Consider `CCn1c(CO)nn(-c2cc3c(cc2F)[C@@H](O)[C@@H](c2ccccc2C)CN3C(C)C)c1=O` (stereo in doubt) [Example 15, 4-Ethyl-2-((3S*,4S*)-6-fluoro-4-hydroxy-1-isopropyl-3-(o-tolyl)-1,2,3,4-tetrahydroquinolin-7-yl)-5-(hydroxymethyl)-2,4-dihydro-3H-1,2,4-triazol-3-one], for which the IC50 in assay [2] is 7.9 nM; in assay [1], 4 nM.
Turning to `CCn1c(CO)nn(-c2cc3c(cc2F)C(C)=C(c2ccccc2C)CN3C(C)C)c1=O` [Example 21, 4-Ethyl-2-(6-fluoro-1-isopropyl-4-methyl-3-(o-tolyl)-1,2-dihydroquinolin-7-yl)-5-(hydroxymethyl)-2,4-dihydro-3H-1,2,4-triazol-3-one], the figures for the IC50 in assay [2] and in assay [1] were 3.71 nM and 2 nM, respectively.
With `CCn1c(CO)nn(-c2ccc3c(c2)N([C@@H](C)C(F)(F)F)C(=O)C(c2c(F)cccc2Cl)N3)c1=O` (stereo partly drawn) [Example 3, 3-(2-Chloro-6-fluorophenyl)-7-(4-ethyl-3-(hydroxymethyl)-5-oxo-4,5-dihydro-1H-1,2,4-triazol-1-yl)-1-((S)-1,1,1-trifluoropropan-2-yl)-3,4-dihydroquinoxalin-2(1H)-one], the IC50 in assay [2] was 293 nM; in assay [1], 100 nM.
The like results for `CCn1c(CO)nn(-c2cc3c(cc2F)C(=O)C(C)(c2ccccc2C)CN3C(C)C)c1=O` (racemic) [Example 19, Racemic 7-(4-Ethyl-3-(hydroxymethyl)-5-oxo-4,5-dihydro-1H-1,2,4-triazol-1-yl)-6-fluoro-1-isopropyl-3-methyl-3-(o-tolyl)-23-dihydroquinolin-4(1H)-one] were, in that order, 7.06 nM and 4 nM.
`CCn1c(CO)nn(-c2ccc3c(c2)N([C@@H](C)C(F)(F)F)C(=O)C(c2ccccc2SC)N3)c1=O` (stereo partly drawn) [Example 2, 7-(4-Ethyl-3-(hydroxymethyl)-5-oxo-4,5-dihydro-1H-1,2,4-triazol-1-yl)-3-(2-(methylthio)phenyl)-1-((S)-1,1,1-trifluoropropan-2-yl)-3,4-dihydroquinoxalin-2(1H)-one]: the IC50 in assay [2] came out at 588 nM; in assay [1], 100 nM.
On to `CCn1c(CO)nn(-c2cc3c(cc2F)N(C(C)=O)C(c2ccccc2C)CC3C(C)C)c1=O` (stereo not shown) [Example 24, 1-(1-Acetyl-7-fluoro-4-isopropyl-2-(o-tolyl)-1,2,3,4-tetrahydroquinolin-6-yl)-4-ethyl-3-(hydroxymethyl)-1H-1,2,4-triazol-5(4H)-one], for which the results for the IC50 in assay [2] and in assay [1] were 5530 nM and greater than 100 nM, respectively.
For `CCn1c(CO)nn(-c2cc3c(cc2F)OC(c2c(F)cccc2Cl)C(=O)N3C(C)C)c1=O` (stereo not shown) [Example 5, 2-(2-Chloro-6-fluorophenyl)-6-(4-ethyl-3-(hydroxymethyl)-5-oxo-4,5-dihydro-1H-1,2,4-triazol-1-yl)-7-fluoro-4-isopropyl-2H-benzo[b][1,4]oxazin-3(4H)-one] the same measures were 42.3 nM and 50 nM.
